Data taken from patent US6503449B1, “Process for the control of microbial contamination in water-based solids suspensions” (Ciba Specialty Chemicals Corporation, priority 1998, dated 2003).

Tested on: Pseudomonas putida
Test: Sonication (20 kHz horn probe) of Pigment Red 23 dispersion with biocide, streaking on Nutrient Agar plates
Type: cell-based
Set-up: key: −: no bacterial colonies detected; +: light contamination (10^0 and 10^3 cfu/ml); ++: moderate contamination(10^3-10^5 cfu/ml); +++: heavy contamination(>10^5 cfu/ml)
Text: A mixture of Pigment Red 23, available from Ciba Specialty Chemicals(UK) Ltd., 215.5 parts, Emulan OG (RTM) (35% solution in water), available from BASF, 153.7 parts, tributyl phosphate, available from Albright & Wilson, 2 parts, and water, 128.8 parts, are dispersed by re-circulation through a Bachofen KDL200 bead-mill until colouristic properties are within specification of UNISPERSE (RTM) Red RBS-PI, available from Ciba Specialty Chemicals(UK) Ltd., and adjusted to pH 8.0-8.5 with 20% sodium hydroxide solution. This material is identified as containing the Gram negative bacterium, Pseudomonas putida. 50 millilitre aliquots of this dispersion containing levels of glutaraldehyde (pentane-1,5-dialdehyde), available as the trade product Protectol GDA form BASF or Ucarcide from Union Carbide, between 0 parts per million (ppm) and 2000 ppm are sonicated using a Branson MSE sonicator with a 19 mm horn probe resonating at 20 kHz with an amplitude of 6 microns. Sonication is undertaken in a 100 millilitre glass beaker, diameter 38 mm, with magnetic flea agitator and cooled in a water/ice bath to maintain temperature at 28-32° C. Bacterial growth in each sample is assessed at 5 minute intervals by streaking each dispersion on to Nutrient Agar(NA) plates and incubating the plates for a minimum of 48 hours at 30° C. The plates are then examined for bacterial colonies and expressed according to the following notation:
The resistance of the pigment dispersion produced according to the process of the invention to further bacterial growth is recorded by continued observation of the samples of Table 1 over a period of up to 90 days. […]

O=CCCCC=O [glutaraldehyde, pentane-1,5-dialdehyde]
further bacterial growth, samples of Table 1 (10 ppm, Time 1 (days) after sonication): −
further bacterial growth, samples of Table 1 (10 ppm, Time 2 (days) after sonication): −
further bacterial growth, samples of Table 1 (10 ppm, Time 3 (days) after sonication): −
further bacterial growth, samples of Table 1 (10 ppm, Time 7 (days) after sonication): −
further bacterial growth, samples of Table 1 (10 ppm, Time 14 (days) after sonication): −
further bacterial growth, samples of Table 1 (10 ppm, Time 28 (days) after sonication): −
further bacterial growth, samples of Table 1 (10 ppm, Time 90 (days) after sonication): −
bacterial colonies on Nutrient Agar (10 ppm, sonicated 0 mins.): +++ (heavy contamination(>10^5 cfu/ml))
bacterial colonies on Nutrient Agar (10 ppm, sonicated 5 mins.): +++ (heavy contamination(>10^5 cfu/ml))
bacterial colonies on Nutrient Agar (10 ppm, sonicated 10 mins.): +++ (heavy contamination(>10^5 cfu/ml))
bacterial colonies on Nutrient Agar (10 ppm, sonicated 15 mins.): ++ (moderate contamination(10^3-10^5 cfu/ml))
bacterial colonies on Nutrient Agar (10 ppm, sonicated 20 mins.): + (light contamination (10^0 and 10^3 cfu/ml))
bacterial colonies on Nutrient Agar (10 ppm, sonicated 25 mins.): + (light contamination (10^0 and 10^3 cfu/ml))
bacterial colonies on Nutrient Agar (10 ppm, sonicated 30 mins.): −
further bacterial growth, samples of Table 1 (25 ppm, Time 1 (days) after sonication): −
further bacterial growth, samples of Table 1 (25 ppm, Time 2 (days) after sonication): −
further bacterial growth, samples of Table 1 (25 ppm, Time 3 (days) after sonication): −
further bacterial growth, samples of Table 1 (25 ppm, Time 7 (days) after sonication): −
further bacterial growth, samples of Table 1 (25 ppm, Time 14 (days) after sonication): −
further bacterial growth, samples of Table 1 (25 ppm, Time 28 (days) after sonication): −
further bacterial growth, samples of Table 1 (25 ppm, Time 90 (days) after sonication): −
bacterial colonies on Nutrient Agar (25 ppm, sonicated 0 mins.): +++ (heavy contamination(>10^5 cfu/ml))
bacterial colonies on Nutrient Agar (25 ppm, sonicated 5 mins.): ++ (moderate contamination(10^3-10^5 cfu/ml))
bacterial colonies on Nutrient Agar (25 ppm, sonicated 10 mins.): −
bacterial colonies on Nutrient Agar (25 ppm, sonicated 15 mins.): −
bacterial colonies on Nutrient Agar (25 ppm, sonicated 20 mins.): −
bacterial colonies on Nutrient Agar (25 ppm, sonicated 25 mins.): −
bacterial colonies on Nutrient Agar (25 ppm, sonicated 30 mins.): −
further bacterial growth, samples of Table 1 (50 ppm, Time 1 (days) after sonication): −
further bacterial growth, samples of Table 1 (50 ppm, Time 2 (days) after sonication): −
further bacterial growth, samples of Table 1 (50 ppm, Time 3 (days) after sonication): −
further bacterial growth, samples of Table 1 (50 ppm, Time 7 (days) after sonication): −
further bacterial growth, samples of Table 1 (50 ppm, Time 14 (days) after sonication): −
further bacterial growth, samples of Table 1 (50 ppm, Time 28 (days) after sonication): −
further bacterial growth, samples of Table 1 (50 ppm, Time 90 (days) after sonication): −
bacterial colonies on Nutrient Agar (50 ppm, sonicated 0 mins.): +++ (heavy contamination(>10^5 cfu/ml))
bacterial colonies on Nutrient Agar (50 ppm, sonicated 5 mins.): ++ (moderate contamination(10^3-10^5 cfu/ml))
bacterial colonies on Nutrient Agar (50 ppm, sonicated 10 mins.): −
bacterial colonies on Nutrient Agar (50 ppm, sonicated 15 mins.): ++ (moderate contamination(10^3-10^5 cfu/ml))
bacterial colonies on Nutrient Agar (50 ppm, sonicated 20 mins.): −
bacterial colonies on Nutrient Agar (50 ppm, sonicated 25 mins.): −
bacterial colonies on Nutrient Agar (50 ppm, sonicated 30 mins.): −
further bacterial growth, samples of Table 1 (75 ppm, Time 1 (days) after sonication): −
further bacterial growth, samples of Table 1 (75 ppm, Time 2 (days) after sonication): −
further bacterial growth, samples of Table 1 (75 ppm, Time 3 (days) after sonication): −
further bacterial growth, samples of Table 1 (75 ppm, Time 7 (days) after sonication): −
further bacterial growth, samples of Table 1 (75 ppm, Time 14 (days) after sonication): −
further bacterial growth, samples of Table 1 (75 ppm, Time 28 (days) after sonication): −
further bacterial growth, samples of Table 1 (75 ppm, Time 90 (days) after sonication): −
bacterial colonies on Nutrient Agar (75 ppm, sonicated 0 mins.): +++ (heavy contamination(>10^5 cfu/ml))
bacterial colonies on Nutrient Agar (75 ppm, sonicated 5 mins.): −
bacterial colonies on Nutrient Agar (75 ppm, sonicated 10 mins.): −
bacterial colonies on Nutrient Agar (75 ppm, sonicated 15 mins.): −
bacterial colonies on Nutrient Agar (75 ppm, sonicated 20 mins.): −
bacterial colonies on Nutrient Agar (75 ppm, sonicated 25 mins.): −
bacterial colonies on Nutrient Agar (75 ppm, sonicated 30 mins.): −
further bacterial growth, samples of Table 1 (100 ppm, Time 1 (days) after sonication): −
further bacterial growth, samples of Table 1 (100 ppm, Time 2 (days) after sonication): −
further bacterial growth, samples of Table 1 (100 ppm, Time 3 (days) after sonication): −
further bacterial growth, samples of Table 1 (100 ppm, Time 7 (days) after sonication): −
further bacterial growth, samples of Table 1 (100 ppm, Time 14 (days) after sonication): −
further bacterial growth, samples of Table 1 (100 ppm, Time 28 (days) after sonication): −
further bacterial growth, samples of Table 1 (100 ppm, Time 90 (days) after sonication): −
bacterial colonies on Nutrient Agar (100 ppm, sonicated 0 mins.): +++ (heavy contamination(>10^5 cfu/ml))
bacterial colonies on Nutrient Agar (100 ppm, sonicated 5 mins.): + (light contamination (10^0 and 10^3 cfu/ml))
bacterial colonies on Nutrient Agar (100 ppm, sonicated 10 mins.): + (light contamination (10^0 and 10^3 cfu/ml))
bacterial colonies on Nutrient Agar (100 ppm, sonicated 15 mins.): −
bacterial colonies on Nutrient Agar (100 ppm, sonicated 20 mins.): −
bacterial colonies on Nutrient Agar (100 ppm, sonicated 25 mins.): −
bacterial colonies on Nutrient Agar (100 ppm, sonicated 30 mins.): −
further bacterial growth, samples of Table 1 (150 ppm, Time 1 (days) after sonication): −
further bacterial growth, samples of Table 1 (150 ppm, Time 2 (days) after sonication): −
further bacterial growth, samples of Table 1 (150 ppm, Time 3 (days) after sonication): −
further bacterial growth, samples of Table 1 (150 ppm, Time 7 (days) after sonication): −
further bacterial growth, samples of Table 1 (150 ppm, Time 14 (days) after sonication): −
further bacterial growth, samples of Table 1 (150 ppm, Time 28 (days) after sonication): −
further bacterial growth, samples of Table 1 (150 ppm, Time 90 (days) after sonication): −
bacterial colonies on Nutrient Agar (150 ppm, sonicated 0 mins.): +++ (heavy contamination(>10^5 cfu/ml))
bacterial colonies on Nutrient Agar (150 ppm, sonicated 5 mins.): −
bacterial colonies on Nutrient Agar (150 ppm, sonicated 10 mins.): −
bacterial colonies on Nutrient Agar (150 ppm, sonicated 15 mins.): −
bacterial colonies on Nutrient Agar (150 ppm, sonicated 20 mins.): −
bacterial colonies on Nutrient Agar (150 ppm, sonicated 25 mins.): −
bacterial colonies on Nutrient Agar (150 ppm, sonicated 30 mins.): −
further bacterial growth, samples of Table 1 (500 ppm, Time 1 (days) after sonication): −
further bacterial growth, samples of Table 1 (500 ppm, Time 2 (days) after sonication): −
further bacterial growth, samples of Table 1 (500 ppm, Time 3 (days) after sonication): −
further bacterial growth, samples of Table 1 (500 ppm, Time 7 (days) after sonication): −
further bacterial growth, samples of Table 1 (500 ppm, Time 14 (days) after sonication): −
further bacterial growth, samples of Table 1 (500 ppm, Time 28 (days) after sonication): −
further bacterial growth, samples of Table 1 (500 ppm, Time 90 (days) after sonication): −
bacterial colonies on Nutrient Agar (500 ppm, sonicated 0 mins.): +++ (heavy contamination(>10^5 cfu/ml))
bacterial colonies on Nutrient Agar (500 ppm, sonicated 5 mins.): −
bacterial colonies on Nutrient Agar (500 ppm, sonicated 10 mins.): −
bacterial colonies on Nutrient Agar (500 ppm, sonicated 15 mins.): −
bacterial colonies on Nutrient Agar (500 ppm, sonicated 20 mins.): −
bacterial colonies on Nutrient Agar (500 ppm, sonicated 25 mins.): −
bacterial colonies on Nutrient Agar (500 ppm, sonicated 30 mins.): −
further bacterial growth, samples of Table 1 (1000 ppm, Time 1 (days) after sonication): −
further bacterial growth, samples of Table 1 (1000 ppm, Time 2 (days) after sonication): −
further bacterial growth, samples of Table 1 (1000 ppm, Time 3 (days) after sonication): −
further bacterial growth, samples of Table 1 (1000 ppm, Time 7 (days) after sonication): −
further bacterial growth, samples of Table 1 (1000 ppm, Time 14 (days) after sonication): −
further bacterial growth, samples of Table 1 (1000 ppm, Time 28 (days) after sonication): −
further bacterial growth, samples of Table 1 (1000 ppm, Time 90 (days) after sonication): −
bacterial colonies on Nutrient Agar (1000 ppm, sonicated 0 mins.): +++ (heavy contamination(>10^5 cfu/ml))
bacterial colonies on Nutrient Agar (1000 ppm, sonicated 5 mins.): −
bacterial colonies on Nutrient Agar (1000 ppm, sonicated 10 mins.): −
bacterial colonies on Nutrient Agar (1000 ppm, sonicated 15 mins.): −
bacterial colonies on Nutrient Agar (1000 ppm, sonicated 20 mins.): −
bacterial colonies on Nutrient Agar (1000 ppm, sonicated 25 mins.): −
bacterial colonies on Nutrient Agar (1000 ppm, sonicated 30 mins.): −
further bacterial growth, samples of Table 1 (2000 ppm, Time 1 (days) after sonication): −
further bacterial growth, samples of Table 1 (2000 ppm, Time 2 (days) after sonication): −
further bacterial growth, samples of Table 1 (2000 ppm, Time 3 (days) after sonication): −
further bacterial growth, samples of Table 1 (2000 ppm, Time 7 (days) after sonication): −
further bacterial growth, samples of Table 1 (2000 ppm, Time 14 (days) after sonication): −
further bacterial growth, samples of Table 1 (2000 ppm, Time 28 (days) after sonication): −
further bacterial growth, samples of Table 1 (2000 ppm, Time 90 (days) after sonication): −
bacterial colonies on Nutrient Agar (2000 ppm, sonicated 0 mins.): +++ (heavy contamination(>10^5 cfu/ml))
bacterial colonies on Nutrient Agar (2000 ppm, sonicated 5 mins.): −
bacterial colonies on Nutrient Agar (2000 ppm, sonicated 10 mins.): −
bacterial colonies on Nutrient Agar (2000 ppm, sonicated 15 mins.): −
bacterial colonies on Nutrient Agar (2000 ppm, sonicated 20 mins.): −
bacterial colonies on Nutrient Agar (2000 ppm, sonicated 25 mins.): −
bacterial colonies on Nutrient Agar (2000 ppm, sonicated 30 mins.): −
